# According to the METLIN SMRT retention time set (Domingo-Almenara et al. 2019):
# Experiment: gradient 5% acetonitrile 3 min, to 50% in 2 min, to 85% in 15 min, held 3 min, 100 µL/min
# Conditions: column: Zorbax Extend-C18 2.1 x 50 mm; eluents: water / acetonitrile, 0.1% formic acid
# Outline: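 Standards, all pure, were combined into mixtures of ~100 molecules and run at 100 μL/min on a Zorbax Extend-C18 column (2.1 × 50 mm, 1.8 μm) with water and acetonitrile, each containing 0.1% formic acid. A coupled quadrupole time-of-flight mass spectrometer operated in positive and negative ionization mode. Retention time values come from computationally picked adduct peaks, each inspected manually.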
row,Compound,RP-LC retention time [s]
1,CCOC(=O)c1nnn(-c2ccccc2OC)c1C(=O)OCC,917
2,Cc1ccc2c(c1)C(=O)NC1(CCN(C(=O)NCc3ccc(F)cc3)CC1)N2C,761
3,Cc1ccnc(NC(=O)C2CCN(S(=O)(=O)c3cc(C(=O)N4CCCCCC4)cs3)CC2)c1,638
4,O=C(NC1CCN(c2cc(-c3cccnc3)[nH]n2)CC1)C1CCCCC1,573
5,Cc1[nH]c(=O)[nH]c(=O)c1CC(=O)Nc1cccc(NS(C)(=O)=O)c1,549
6,O=C(NC1CCCC1)C1CCCN(S(=O)(=O)Cc2ccc(Cl)cc2)C1 (stereo unspecified),910
7,CCOCCCNS(=O)(=O)c1cc(-c2nc(C)c(C)s2)sc1C,961
8,O=C(NC1CCN(c2nnc3ccc(Cl)cn23)CC1)c1ccsc1,602
9,COc1ccc(C)c2sc(NC(=O)c3cc(C)no3)nc12,800
10,CC(C)NC(=O)c1ccc(OCC2CCCN(C(=O)c3ccc(F)cc3)C2)cc1 (stereo unspecified),844
11,CCc1ccc(-c2cn3ccn(-c4ccc(OC)c(OC)c4)c(=O)c3n2)cc1,840
12,CCn1cc(-c2ccncc2)cc1C(=O)NCc1ccc(Br)cc1,698
13,COC(=O)C1=CN(c2ccc(F)cc2)c2cc(F)ccc2S1(=O)=O,789
14,CCOc1ccc(-n2nnnc2CNC(=O)CCCN2C(=O)c3ccccc3C2=O)cc1,734
15,COc1ccc(Cl)cc1NC(=O)Cn1ncc2c(c1=O)N(CC1CC1)C(=O)CS2,878
16,O=C1NCCCn2cc(S(=O)(=O)NCc3cccc(C(F)(F)F)c3)cc21,718
17,COc1ccc(CCc2nc3nccc(-c4ccc(F)cc4)n3n2)cc1OC,865
18,O=C(NCCN1CCOCC1)c1sc2cc(Cl)ccc2c1Cl,590
19,Cc1noc(C)c1S(=O)(=O)N1CCC(n2nc(-c3ccccc3)nc2C)C1 (stereo unspecified),806
20,CCC(=O)N1c2ccc(S(=O)(=O)CCC(=O)NCCc3ccc(C)cc3)cc2CC1C (stereo unspecified),874
21,CCCCNC(=O)CCCN1C(=O)CCn2nc(C)cc21,629
22,COc1ccccc1-c1cc2c(=O)n(Cc3nc(-c4cccc(F)c4)no3)ccn2n1,1040
23,CCc1nc2cc(-c3noc(Cc4ccccc4Cl)n3)ccc2o1,1170
24,COc1ccc(S(=O)(=O)N2CCCC(C(=O)NCCc3ccc(OC)c(OC)c3)C2)cc1C (stereo unspecified),870
25,CC(C)(C)C(=O)N1CCC(C(=O)Nc2ccc(S(=O)(=O)N3CCCC3)cc2)CC1,792
26,CCC(=O)N1CCc2c([nH]c3ccccc23)C12C(=O)N(C)c1ccc(Br)cc12 (stereo unspecified),939
27,CCCNC(=O)C1CCN(c2ccc(SCC(=O)Nc3ccc(OC)cc3)nn2)CC1,611

row,Compound,RP-LC retention time [s]
1,CCOC(=O)C1CCN(c2nc(-c3ccc(OC)cc3)no2)CC1,981
2,Cc1cc(N2CCN([C@@H]3CN[C@H](C(=O)N4CCSC4)C3)CC2)n(-c2ccccc2)n1,653
3,O=c1c2sccc2n(Cc2nc(-c3ccc(F)c(Br)c3)no2)c(=O)n1-c1ccccc1,961
4,CC1CCN(CCNC(=O)c2cccc3c2SCCC3=O)CC1,588
5,Cn1cc(S(=O)(=O)N2CCC(C(=O)Nc3cccc(F)c3)CC2)cc1C(=O)N1CCCC1,772
6,Cc1cc(C)cc(Oc2nccn3c(=O)n(CC(=O)Nc4cccc(C(C)C)c4)nc23)c1,1080
7,COC(=O)c1cc2n(n1)CC(C)(C(=O)NC1CCCCC1)N(c1ccc(F)cc1)C2=O (stereo unspecified),847
8,O=C(c1cnccn1)N1CCC(N2C(=O)C(O)C23CCCCC3)CC1 (stereo unspecified),590
9,CCCc1noc(-c2nc(-c3ccccc3F)no2)n1,1090
10,CCOCCCNC(=O)c1nnc(-c2ccc(S(=O)(=O)N3CCOCC3)cc2)o1,727
11,CC1(C(=O)NCc2ccccc2Cl)Cn2cnc(C(=O)NC3CCCCC3)c2C(=O)N1C1CC1 (stereo unspecified),840
12,CCn1cc(CCNC(=O)c2ccccc2OC)c2cccnc21,716
13,COC(=O)C1=C(C)NC2=C(C(=O)c3ccccc32)C1c1ccccc1OC (stereo unspecified),901
14,CCOC(=O)c1c(S(=O)(=O)N2CCC(C(=O)Nc3cccc(CC)c3)CC2)c(C)n(CC)c1C,984
15,CCn1c(CCC(=O)NCc2ccc(C)cc2)nc2ccccc2c1=O,796
16,COc1ccc(NC(=O)CSc2nnc3c4sc(N5CCCC5)nc4ncn23)cc1Cl,798
17,CN(CCc1noc(COc2ccc(Cl)cc2)n1)C(=O)NC(C)(C)C,953
18,CCc1ccc(C2=C(C)C(N3CCCN(C(=O)c4ccccc4)CC3)=NS2(=O)=O)cc1,896
19,CCn1ccc2c(cc(C(=O)Nc3cc(Cl)c(OC)cc3OC)n2C)c1=O,810
20,COc1ccc(-n2c(=O)c3sccc3n(Cc3nc(-c4ccc(Cl)c(F)c4)no3)c2=O)cc1,1060
21,COc1ccc(C(=O)NCc2nc3ccccc3[nH]2)cc1,555
22,CCCN(Cc1ccc(OC)c(OC)c1)Cc1cc(=O)n2cccc(C)c2n1,620
23,CCN1CCN(c2nc(F)c(F)c(S(=O)(=O)CCNc3ccccc3)c2F)CC1,689
24,CCOCCCNC(=O)C1CCN(c2cc(=O)n(C)c(=O)n2CC)CC1,686
25,Cc1ccc(CN2CCN(CC(=O)N3CCN(c4cccc(Cl)c4)CC3)C(=O)C2=O)cc1,866
26,Cc1cccc(NC(=O)Cn2c(C)nc3c(sc4nc(-c5ccccc5)ccc43)c2=O)c1,880
27,CC(=O)c1ccc(NC(=O)C2CC(=O)N(c3ccc4c(c3)CCN4C(C)=O)C2)cc1 (stereo unspecified),670

# Second part, the compound after the results:
row,RP-LC retention time [s],Compound
1,1060,CCCN1C(=O)c2cc(S(=O)(=O)Nc3ccc(F)cc3)ccc2Oc2cccnc21
2,727,Nc1cc(C2CCN(C(=O)Nc3cccc(Cl)c3)CC2)no1
3,715,Cc1ccc(CNC(=O)C2CCCN(c3cnn(C)c(=O)c3)C2)cc1 (stereo unspecified)
4,1130,CCn1cc(-c2nc(CC(=O)Nc3cc(Cl)ccc3OC)cs2)c2cccnc21
5,775,O=C(NCc1ccc(F)cc1)c1ccc2c(c1)nc1n2CCN(Cc2ccccc2)C1=O
6,1350,COC(=O)c1cnc(N2CCN(c3cccc(Cl)c3)CC2)c2ccccc12
7,705,O=C(Nc1ccc2c(c1)OCCO2)N1CCC(n2c(-c3ccco3)nc3cccnc32)C1 (stereo unspecified)
8,737,Cc1noc(-c2ccc(OC3CN(C(=O)Nc4ccccc4)C3)cc2)n1
9,743,COc1ccc(-c2cn3cccnc3n2)cc1NC(=O)c1ccc(Cl)cc1
10,887,Cc1nc(NCc2ccco2)sc1C(=O)Nc1cccc(C(F)(F)F)c1
11,754,O=C(CCn1cnc2cc(-c3noc(-c4cccc(Cl)c4)n3)ccc21)N1CCOCC1
12,1010,Cc1ccc(CNC(=O)C2CCCN(c3nc4ccsc4c(=O)n3Cc3ccc(F)cc3)C2)cc1 (stereo unspecified)
13,1060,O=C(NCCc1ccccc1)Nc1nccn(-c2ccc3c(c2)CCC3)c1=O
14,1060,CCc1nc(-c2csc(S(=O)(=O)N3CCCC(C(=O)N4CCc5ccccc5C4)C3)c2)no1 (stereo unspecified)
15,818,O=C(Nc1ccc(OCC(=O)N2CCN(c3ccccc3Cl)CC2)nc1)C1CC1
16,640,Cc1ccn2cc(-c3ccc(NC(=O)Nc4ccccc4)cc3)nc2n1

row,RP-LC retention time [s],Compound
1,917,Cc1cc(NC(=O)Cn2ccn3nc(-c4ccccc4)c(CO)c3c2=O)ccc1Br
2,700,CNC(=O)C1CCN(C(=O)Nc2ccc(NC(=O)Nc3ccc(C)c(C)c3)cc2)CC1
3,963,CCOc1ccc(NC(=O)C2CCN(S(=O)(=O)c3c(C)nn(-c4ccccc4)c3C)CC2)cc1
4,1060,Cc1ccc(-n2nc(N3CCCC(C(=O)NC(C)CCc4ccccc4)C3)ccc2=O)cc1Cl (stereo unspecified)
5,698,O=C(NC(Cc1ccccc1)C(=O)N1CCN(c2ccccn2)CC1)c1cccc(Cl)c1 (stereo unspecified)
6,754,COc1ccc(CNC(=O)C2CCCN(c3ncnc4c3oc3ccccc34)C2)c(OC)c1 (stereo unspecified)
7,875,CCOc1ccccc1NC(=O)N1CCN(c2ccc(=O)n(-c3ccc(F)cc3)n2)CC1
8,894,Cc1ccc2c(c1)N(S(C)(=O)=O)CCC(C(=O)Nc1ccccc1C)O2 (stereo unspecified)
9,670,Cc1cnc(-c2ccccc2)n1C1CN(S(=O)(=O)c2cccc(F)c2)C1
10,967,O=C(C1CCN(c2ncccc2-c2nc(-c3ccccc3)no2)CC1)N1CCN(c2ncccn2)CC1
11,1180,Cc1ccc(-c2noc(Cn3c(=O)n(Cc4ccc5c(c4)OCO5)c(=O)c4sccc43)n2)cc1C
12,711,O=C(O)c1nnn(-c2ccc3c(c2)CCC3)c1-c1cccnc1
13,973,COCCc1noc(C2Cc3ccccc3N2C(=O)NCc2ccc(C)cc2)n1 (stereo unspecified)
14,793,O=C(Nc1nnc(C2CC(=O)N(c3ccccc3)C2)o1)c1ccc(C(F)(F)F)cc1 (stereo unspecified)
15,887,Clc1ccc(-c2nc(NC3CCCC3)c3ccccc3n2)cc1
16,734,CCCn1cc(C(=O)NCc2ccc(N3CCOCC3)cc2)c2cccnc21
